Experimental data published in publication PMC4466525, “Design, Synthesis and Structure-Activity Relationship Studies of Novel Survivin Inhibitors with Potent Anti-Proliferative Properties” (PLoS ONE, 2015).
Like-named read-outs stand apart in the source and are kept apart here.

Key:
M14 = assay: Cell viability (MTS) anti-proliferative assay, M14; assay type: cell-based; conditions: M14 human melanoma, 48 h treatment, n = 4, read-out: IC50 values ± SEM, M14
Description: (§1) The anti-proliferative effect of UC-112 and its analogs were tested in human melanoma (A375, M14 and M14/LCC6MDR1) and human prostate cancer (PC-3) cell lines. All the cell lines were purchased from ATCC (American Type Culture Collection, Manassas, VA). The cancer cells were cultured using the supplemented cell culture medium as described before at 37°C in a humidified atmosphere containing 5% CO2. 5000 cells in logarithm growing phase were seeded overnight into each well of a 96-well plate. Then the cells were continuously incubated with sequential diluted compound solution (10 nM to 100 μM, 100 μl per well) in cell culture medium.

PC-3 = assay: Cell viability (MTS) anti-proliferative assay, PC-3; assay type: cell-based; conditions: PC-3 human prostate cancer, 48 h treatment, n = 4, read-out: IC50 values ± SEM, PC-3
Description: as §1

[1] = tested on: NCI/ADR-RES (ovarian cancer); assay: NCI-60 five dose screening, NCI/ADR-RES; assay type: cell-based; conditions: Homo sapiens, NCI-60 five dose
Description: Four compounds including the parental compound UC-112 were submitted to National Cancer Institute for its NCI-60 cell line screening, initially tested at one concentration (10 μM), and subsequently selected for full five concentration testing following the standard protocols disclosed by NCI [34]. In brief, cells were plated into 96 well micro-titer plates 24 h prior to the treatment of compound solution for 48 h, then the cell viability was read out through absorbance of sulforhodamine B (SRB) staining.

[2] = Metabolic stability in human liver microsomes; assay type: in vitro ADME
Description: (§2) All these experiments were performed by a contract research service company, Eurofins Panlabs Inc. (Study Number 100017964). Aqueous solubility (μM) was determined using the shake-flask method by comparing the peak area of the principal peak in a calibration standard (200 μM) containing organic solvent (methanol/water, 60/40, v/v) with the peak area of the corresponding peak in a buffer sample. Metabolic stability study was carried out by incubating compound 4g with human liver microsomes. Metabolic stability which is expressed as percent of the parent compound remaining, was calculated by comparing the peak area of the compound at the time point relative to that at time-0. The half-life (T1/2) was estimated from the slope of the initial linear range of the logarithmic curve of compound remaining (%) vs. time. In the cytochrome P450 inhibition study, human liver microsomes (0.1 mg/mL) were incubated with different substrates and compound 4g for 10 minutes. After the incubation, peak areas corresponding to the metabolite of each substrate were recorded. The percent of control activity was then calculated by comparing the peak area obtained in the presence of compound 4g to that obtained in the absence of compound 4g. Subsequently, the percent inhibition was calculated by subtracting the percent control activity from 100.

CYP2B6 = molecular target: T1, CYP2B6 (Homo sapiens, UniProt P20813); assay: Cytochrome P450 inhibition, CYP2B6; assay type: in vitro ADME; conditions: probe bupropion, substrate bupropion, human liver microsomes 0.1 mg/mL, read-out: % inhibition of control values, CYP2B6
T1 construct: tissue Eurofins Panlabs Inc. (contract research service) Study Number 100017964; host or cells: human liver microsomes
Description: as §2

CYP3A = assay: Cytochrome P450 inhibition, CYP3A; assay type: in vitro ADME; conditions: human liver microsomes 0.1 mg/mL
Description: as §2

survivin [3] = molecular target: T2, survivin (Homo sapiens, UniProt O15392); assay: Western blotting of survivin level, A375 cells; assay type: cell-based
T2 construct: endogenous in cells; host or cells: A375 cells
Description: (§3) Lysates of A375 cells treated by the compound solution for 24 h were used to determine the change of IAP protein levels through western blotting. Primary rabbit antibodies against survivin, XIAP, cIAP1, cIAP2, livin and GAPDH were purchased from Cell Signaling Technology, Inc. (Danvers, MA) and used according to manufacture instructions as reported previously. Protein lane intensities were quantified by ImageJ software (US National Institutes of Health, Bethesda, MD).

survivin [4] = molecular target: T2, survivin; assay: Western blotting of survivin level, PC-3 cells; assay type: cell-based; conditions: 24 h
[5] = tested on: other IAPs (XIAP, cIAP1, cIAP2, livin); assay: Western blotting of other IAP levels; assay type: cell-based, human; conditions: 24 h, A375 and PC-3 cells
Description: as §3

[6] = tested on: human melanoma A375 xenograft; assay: In vivo anti-tumor efficacy, A375 xenograft; set-up: species or system nude mouse
From the text: 3 × 10^6 A375 cells were implanted into the left-side dorsal flank of each nude mouse (n = 5) to establish the human melanoma A375 tumor xenograft model as described previously. Compound 4g were first dissolved in DMSO then diluted by 2% methylcellulose PBS buffer. The proportion of DMSO in final solution was kept at lower than 5%. Mice body weight and the size of tumor were closely monitored during the 3 week continuous treatment (i.p. injection, one dose per day, five days per week). At the end point of the treatment, mice were sacrificed after anesthesia. A375 tumor tissues were isolated then freshly lysed on ice to check the targeted protein levels through Western blotting.
A375 tumor tissues collected from the in vivo efficacy study in the above were fixed in formalin phosphate buffer for one week. Then the tissues were processed to get paraffin embedded sections. TUNEL assay was performed using DeadEnd Fluorometric kit (Promega Corporation, Madison, WI) following manufacturer’s instructions. By the end of the experiment, VECTASHIELD Hard Set mounting medium with DAPI (Vector Lab, Inc., Burlingame, CA) was used to mount the tumor slides and stain the nuclei. The final slides were analyzed immediately under a fluorescence microscope (EVOS FL Cell Imaging System, Thermo Fisher Scientific Inc., NY).

T2 sequence (O15392 whole entry): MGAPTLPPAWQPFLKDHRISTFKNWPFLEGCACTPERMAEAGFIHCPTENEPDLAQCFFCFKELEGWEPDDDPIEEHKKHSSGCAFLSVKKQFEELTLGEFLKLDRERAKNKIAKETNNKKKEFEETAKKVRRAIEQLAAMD
T1 sequence (P20813 whole entry): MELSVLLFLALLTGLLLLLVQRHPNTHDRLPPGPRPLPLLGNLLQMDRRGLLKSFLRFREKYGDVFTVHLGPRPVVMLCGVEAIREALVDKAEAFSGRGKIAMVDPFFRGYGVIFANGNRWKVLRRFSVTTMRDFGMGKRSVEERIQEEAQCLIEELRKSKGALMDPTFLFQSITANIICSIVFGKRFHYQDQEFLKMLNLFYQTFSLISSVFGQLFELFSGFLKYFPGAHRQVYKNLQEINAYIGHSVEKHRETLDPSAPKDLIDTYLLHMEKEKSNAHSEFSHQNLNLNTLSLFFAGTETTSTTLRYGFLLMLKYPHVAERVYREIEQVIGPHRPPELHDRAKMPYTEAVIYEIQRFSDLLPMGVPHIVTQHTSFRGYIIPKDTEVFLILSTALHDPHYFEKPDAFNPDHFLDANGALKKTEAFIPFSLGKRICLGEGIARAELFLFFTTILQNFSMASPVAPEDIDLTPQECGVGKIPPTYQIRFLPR

Compound `CC(C)c1ccc(COCc2cc(CN3CCCC3)c(O)c3ncccc23)cc1` [4g, 5-(((4-isopropylbenzyl)oxy)methyl)-7-(pyrrolidin-1-ylmethyl)quinolin-8-ol] has an IC50 (M14) of 0.8 ± 0.2 µM, an IC50 (PC-3) of 0.7 ± 0.1 µM and a GI50 [1] of 0.0501 µM. It also gave a microsomal CLint at 100 nM ([2]; human) of 137 µL/min/mg, a half-life at 100 nM ([2]; test concentration 100 nM) of 51 min and an inhibition at 10 min (CYP2B6) of 21%. The inhibition at 10 min (CYP3A; probe midazolam, substrate midazolam, read-out: % inhibition of control values, CYP3A (midazolam)) was 3%, the inhibition at 10 min (CYP3A; probe testosterone, substrate testosterone, read-out: % inhibition of control values, CYP3A (testosterone)) was 29% and the “Reduction of survivin level, A375” value (survivin [3]; 300 nM, 24 h, A375 cells, lane density by ImageJ) was “over 50%”. For the same compound, the “IC50 values for survivin inhibition” value (survivin [3]; estimated from western blotting, A375 and PC-3 cells) was “low nanomolar range”, the “Effect on survivin level, A375” value (survivin [3]; gradient increasing dose, 24 h, A375 cells) was “dose-dependently suppressed survivin level” and the “Reduction of survivin level, PC-3” value (survivin [4]; 300 nM, lane density by ImageJ) was “over 50%”. For the same compound, the “Effect on survivin level, PC-3” value (survivin [4]; gradient increasing dose) was “dose-dependently suppressed survivin level”, the “Effect on levels of other IAPs” value [5] was “minimally affected” and the “Tumor growth slower than vehicle control group, 20 mg/kg” value ([6]; 20 mg/kg i.p., three weeks, A375 xenograft) was 53%. The “Tumor growth slower than vehicle control group, 40 mg/kg” value ([6]; 40 mg/kg i.p., three weeks, A375 xenograft) was 79%, the “TUNEL assay of tumor tissues” value ([6]; 40 mg/kg, formalin-fixed tumor sections) was “widely-spread cell apoptosis” and the “Expression levels of survivin and XIAP protein in tumor tissues” value ([6]; Western blotting of A375 xenograft tumor tissues from treated groups) was “decreased”. For the same compound, the Mice body weight ([6]; three weeks i.p. treatment) was “without causing obvious decrease of mice body weight”.
